Test results as given in patent publication US11642332B2, “(2R,4R)-5-(5′-chloro-2′-fluorobiphenyl-4-yl)-2-hydroxy-4-[(5-methyloxazole-2-carbonyl)amino]pentanoic acid” (THERAVANCE BIOPHARMA R&D IP, LLC, priority 2015, dated 2023).

Assay: Renal excretion of Compound 1 in rat
Assay type: in vivo, male Sprague Dawley rats
Conditions: IV 0.5 mg/kg
Description: An important factor for insuring appropriate long term drug dosing and correct steady-state drug concentrations in patients is drug clearance. In general, decreased drug clearance results in higher drug concentrations and greater drug effects. In order to understand renal clearance of Compound 1, the percent of administered dose recovered in urine following a single IV dose was assessed in three animal species. Three separate studies in male Sprague Dawley rats, male beagle dogs and male cynomolgus monkeys, respectively, were conducted and the procedure and experimental results are described below.
Male Sprague Dawley rats (N=3), having body weights of 0.348 to 0.362 kg, received an IV dose of Compound 1 at 0.5 mg/kg as part of a dosing cassette. Compound 1 was dissolved in 5% NaHCO3 in D5W (5% dextrose in water, pH 7.4) and filtered through a […] polyvinyl difluoride (PVDF) syringe filter prior to administration. The rats had access to food ad libitum before and after administration of Compound 1. Urine samples were collected in metabolic cages and maintained on frozen dry ice during collection. The samples were thawed and the volume of the urine was recorded. An aliquot of the urine sample was transferred to a polypropylene storage tube, frozen and stored (−80° C.) prior to bioanalysis.
Rat urine concentrations of Compound 1 were determined by LC/MS/MS. […]

## Cc1cnc(C(=O)N[C@H](Cc2ccc(-c3cc(Cl)ccc3F)cc2)C[C@@H](O)C(=O)O)o1 [Compound 1, (2R,4R)-5-(5′-Chloro-2′-fluorobiphenyl-4-yl)-2-hydroxy-4-[(5-methyloxazole-2-carbonyl)amino]pentanoic Acid]
  Amount of Compound 1 Excreted in Urine over Collection Period (0-24 hrs) Mean: 0.0462 µg
